Read-outs that look alike come from different tables or passages of the source. Where a SMILES comes first, the peptide text is derived from it.
What was measured:
Staphylococcus aureus [1] = test: Microbicidal activity of the myeloperoxidase system (p-MPO, glucose oxidase, glucose) with amino acids in the presence of blood, CFU plate counts; synergy determination from these CFU; format: cell-based; settings: for Average Viability CFU/ml 50 min / Log Reduction 50 min: MPO 4.7 U/ml, GO 4.2 U/ml
How it was run: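 Microbicidal activity of the MPO–glucose oxidase–glucose system against S. aureus with amino acids was assessed in 3% whole blood. Reactions of 1 mL were run at room temperature or 37° C and stopped with catalase. Surviving CFU were counted on trypticase soy agar. For each pair, Actual CFU was divided by Predicted CFU and multiplied by 100. This value was compared with variability-based thresholds to classify synergism, antagonism or additivity.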

Staphylococcus aureus [2] = test: Control: microbicidal activity of the amino acid or analogue alone (no glucose, MPO, glucose oxidase) in the presence of blood; format: cell-based; settings: for log reduction at 5000 µM: Staphylococcus aureus, 1 h, read-out: Log Reduction 60 min
Text: As a control to determine the microbicidal activity of the amino acids alone, the foregoing procedure was followed without replication, except in the absence of glucose, MPO, and glucose oxidase.

[3] = MPO 100 μg/mL, AA 20 mM, 30 min
[4] = MPO 100 μg/mL, AA 20 mM, 60 min
[5] = Table 5, amino acid 5 mM (none: 0 mM), MPO 38 U/ml, GO 33.3 U/ml, blood
[6] = Table 10, single amino acid 2.5 mM, in the presence of blood, 50 min
[7] = Table 19, amino acid (racemic, L- or D-form) 2.5 mM, 50 min
[8] = single amino acid 2.5 mM, blood
[9] = amino acid alone 5 mM, MPO 0, GO 0, no glucose, blood, without replication
[10] = Table 2, amino acid 5 mM (none: 0 mM), MPO 38 U/ml, GO 33.3 U/ml, blood
[11] = Table 7, amino acid analogue 5 mM, MPO 38 U/ml, GO 33.3 U/ml, blood
[12] = amino acid analogue alone 5 mM, MPO 0, GO 0, no glucose, blood
[13] = Table 3, amino acid 5 mM (none: 0 mM), MPO 38 U/ml, GO 33.3 U/ml, blood
[14] = Table 11, single amino acid 2.5 mM, in the presence of blood, 50 min
[15] = Table 19, amino acid 3.5 mM, 50 min
[16] = Table 4, amino acid 5 mM (none: 0 mM), MPO 38 U/ml, GO 33.3 U/ml, blood
[17] = Table 13, single amino acid 2.5 mM, in the presence of blood, 50 min
[18] = Table 14, single amino acid 2.5 mM, in the presence of blood, 50 min

SMILES	Log 10 (CFU + 1) Survivors (Staphylococcus aureus [1]; MPO 25 μg/mL, AA 5 mM, 30 min)	Log 10 (CFU + 1) Survivors (Staphylococcus aureus [1]; MPO 25 μg/mL, AA 5 mM, 60 min)	Log 10 (CFU + 1) Survivors (Staphylococcus aureus [1]; MPO 25 μg/mL, AA […], 30 min)	Log 10 (CFU + 1) Survivors (Staphylococcus aureus [1]; MPO 25 μg/mL, AA […], 60 min)	Log 10 (CFU + 1) Survivors (Staphylococcus aureus [1]; MPO 100 μg/mL, AA 5 mM, 30 min)	Log 10 (CFU + 1) Survivors (Staphylococcus aureus [1]; MPO 100 μg/mL, AA 5 mM, 60 min)	Log 10 (CFU + 1) Survivors (Staphylococcus aureus [1]; [3])	Log 10 (CFU + 1) Survivors (Staphylococcus aureus [1]; [4])	Average Viability CFU/ml 50 min (Staphylococcus aureus [1]; [6]) [CFU/ml]	Log Reduction 50 min (Staphylococcus aureus [1]; [6])	log reduction at 5000 µM (Staphylococcus aureus [2]; [9])	Average Viability CFU/ml 60 min (Staphylococcus aureus [2]; [9]) [CFU/ml]	Average Viability CFU/ml 60 min (Staphylococcus aureus [1]; [13]) [CFU/ml]	Log 10 (CFU + 1) Survivors 60 min (Staphylococcus aureus [1]; [13])	Log Reduction 60 min (Staphylococcus aureus [1]; [13])	further results
CC(C)[C@@H](N)C(=O)O [D-Valine]	4.1	0.0	6.7	0.0	0.0	0.0	0.0	0.0	630000	1.6	0.1	20900000				Average Viability CFU/ml 60 min (Staphylococcus aureus [1]; [5]): 0 CFU/ml; Log Reduction 60 min (Staphylococcus aureus [1]; [5]): 7.4; Average Viability CFU/ml 50 min (Staphylococcus aureus [1]; [7]): 630000 CFU/ml; Log Reduction 50 min (Staphylococcus aureus [1]; [7]): 1.6; Average Viability CFU/ml 50 min (Staphylococcus aureus [1]; [8]): 630000 CFU/ml; Log Reduction 50 min (Staphylococcus aureus [1]; [8]): 1.6
N=C(N)NCCC[C@H](N)C(=O)O [L-Arginine]												23600000				Average Viability CFU/ml 60 min (Staphylococcus aureus [1]; [10]): 5450000 CFU/ml; Log 10 (CFU + 1) Survivors 60 min (Staphylococcus aureus [1]; [10]): 6.7; Log Reduction 60 min (Staphylococcus aureus [1]; [10]): 0.6; enhancement of MPO microbicidal activity (in words) (Staphylococcus aureus [1]; amino acid 5 mM, MPO 38 U/ml, GO 33.3 U/ml, blood): essentially inactive; log reduction at 5000 µM (Staphylococcus aureus [2]): 0
COC(=O)CN.Cl [Glycine methyl ester hydrochloride]																Average Viability CFU/ml 60 min (Staphylococcus aureus [1]; [11]): 0 CFU/ml; Log Reduction 60 min (Staphylococcus aureus [1]; [11]): 7.4; log reduction at 5000 µM (Staphylococcus aureus [2]): 0; Average Viability CFU/ml 60 min (Staphylococcus aureus [2]; [12]): 21100000 CFU/ml
CC(C)C[C@H](N)C(=O)O [L-Leucine]	4.1	0.0	3.9	0.0	0.0	0.0	0.0	0.0	214500	2.1	0.1	18700000	0	0.0	7.3	Average Viability CFU/ml 50 min (Staphylococcus aureus [1]; [14]): 200500 CFU/ml; Log Reduction 50 min (Staphylococcus aureus [1]; [14]): 2.1; Average Viability CFU/ml 50 min (Staphylococcus aureus [1]; [15]): 204000 CFU/ml; Log Reduction 50 min (Staphylococcus aureus [1]; [15]): 2.1; Average Viability CFU/ml 50 min (Staphylococcus aureus [1]; [8]): 200500 CFU/ml; Log Reduction 50 min (Staphylococcus aureus [1]; [8]): 2.1
O=C(O)CNC(=O)c1ccccc1 [Hippuric acid]	7.3	5.9	6.7	5.8	7.3	5.9	6.8	5.0			0	19700000	865000	5.9	1.4	
C[C@H](N)C(=O)N[C@@H](C)C(=O)O [L-Ala-L-ala] (H-Ala-Ala-OH)												26100000				Average Viability CFU/ml 60 min (Staphylococcus aureus [1]; [16]): 238500 CFU/ml; Log Reduction 60 min (Staphylococcus aureus [1]; [16]): 2.0; Log Reduction 60 min (Staphylococcus aureus [2]; [9]): 0.0
C[C@H](O)[C@@H](N)C(=O)O [D-Threonine]	7.3	6.8	7.3	6.7	7.1	5.1	7.4	5.0			0	20700000	815000	5.9	1.4	Average Viability CFU/ml 50 min (Staphylococcus aureus [1]; [14]): 2020000 CFU/ml; Log Reduction 50 min (Staphylococcus aureus [1]; [14]): 1.1
CCOC(=O)[C@@H](N)C(C)C.Cl [L-Valine ethyl ester hydrochloride]																Average Viability CFU/ml 60 min (Staphylococcus aureus [1]; [11]): 0 CFU/ml; Log Reduction 60 min (Staphylococcus aureus [1]; [11]): 7.4; log reduction at 5000 µM (Staphylococcus aureus [2]; [12]): 0; Average Viability CFU/ml 60 min (Staphylococcus aureus [2]; [12]): 22300000 CFU/ml
N[C@@H](Cc1c[nH]cn1)C(=O)O [L-Histidine]	7.3	7.3	7.3	7.3	6.8	4.7	7.3	7.3	7000000	0.5	0	22700000				Average Viability CFU/ml 60 min (Staphylococcus aureus [1]; [10]): 48000 CFU/ml; Log 10 (CFU + 1) Survivors 60 min (Staphylococcus aureus [1]; [10]): 4.7; Log Reduction 60 min (Staphylococcus aureus [1]; [10]): 2.7; Average Viability CFU/ml 50 min (Staphylococcus aureus [1]; [14]): 7000000 CFU/ml; Log Reduction 50 min (Staphylococcus aureus [1]; [14]): 0.6; Average Viability CFU/ml 50 min (Staphylococcus aureus [1]; [17]): 4750000 CFU/ml; Log Reduction 50 min (Staphylococcus aureus [1]; [17]): 0.7
N[C@@H](Cc1ccc(O)cc1)C(=O)O [L-Tyrosine]	7.3	7.1	7.3	7.0	7.3	5.8	7.3	7.2			0	21600000	630000	5.8	1.5	Average Viability CFU/ml 50 min (Staphylococcus aureus [1]; [17]): 890000 CFU/ml; Log Reduction 50 min (Staphylococcus aureus [1]; [17]): 1.4; Average Viability CFU/ml 50 min (Staphylococcus aureus [1]; [18]): 1450000 CFU/ml; Log Reduction 50 min (Staphylococcus aureus [1]; [18]): 1.3
CCOC(=O)C(C)N (stereo not drawn) [Ethyl 2-aminopropanoate]																Average Viability CFU/ml 60 min (Staphylococcus aureus [1]; [11]): 0 CFU/ml; Log Reduction 60 min (Staphylococcus aureus [1]; [11]): 7.4; log reduction at 5000 µM (Staphylococcus aureus [2]; [12]): 0; Average Viability CFU/ml 60 min (Staphylococcus aureus [2]; [12]): 23200000 CFU/ml
N[C@@H](CC(=O)O)C(=O)O [L-Aspartic acid]	7.1	7.0	7.0	6.9	7.0	5.8	7.0	6.8	6900000	0.6	0.1	18600000	620000	5.8	1.5	Average Viability CFU/ml 50 min (Staphylococcus aureus [1]; [17]): 4700000 CFU/ml; Log Reduction 50 min (Staphylococcus aureus [1]; [17]): 0.7
N[C@@H](CCC(=O)O)C(=O)O [L-Glutamic acid]	7.1	7.0	7.3	6.7	6.9	2.8	7.3	6.0	10850000	0.4		23700000				Average Viability CFU/ml 60 min (Staphylococcus aureus [1]; [10]): 236 CFU/ml; Log 10 (CFU + 1) Survivors 60 min (Staphylococcus aureus [1]; [10]): 2.4; Log Reduction 60 min (Staphylococcus aureus [1]; [10]): 5.0; Average Viability CFU/ml 50 min (Staphylococcus aureus [1]; [17]): 11800000 CFU/ml; Log Reduction 50 min (Staphylococcus aureus [1]; [17]): 0.3; Average Viability CFU/ml 50 min (Staphylococcus aureus [1]; [18]): 13700000 CFU/ml; Log Reduction 50 min (Staphylococcus aureus [1]; [18]): 0.3; log reduction at 5000 µM (Staphylococcus aureus [2]): 0
CSCC[C@@H](N)C(=O)O [D-Methionine]											0.1	21100000				Average Viability CFU/ml 60 min (Staphylococcus aureus [1]; [5]): 9400000 CFU/ml; Log Reduction 60 min (Staphylococcus aureus [1]; [5]): 0.4
O=CC(=O)O [Glyoxylic acid]											0.1	22200000				Average Viability CFU/ml 60 min (Staphylococcus aureus [1]; [16]): 610000 CFU/ml; Log Reduction 60 min (Staphylococcus aureus [1]; [16]): 1.6
N[C@H](Cc1c[nH]cn1)C(=O)O [D-Histidine]	7.0	6.0	6.9	5.8	5.1	4.1	6.8	3.9			0	22300000				Average Viability CFU/ml 60 min (Staphylococcus aureus [1]; [5]): 10900 CFU/ml; Log Reduction 60 min (Staphylococcus aureus [1]; [5]): 3.4; Average Viability CFU/ml 50 min (Staphylococcus aureus [1]; [14]): 8000000 CFU/ml; Log Reduction 50 min (Staphylococcus aureus [1]; [14]): 0.5
